Structures can show the parent of a compound that is named as a salt.
Experiments:
CT26 tumors [1] = assay: P4N in B cell or CD8+ T cell depleted mice bearing CT26 tumors; assay type: in vivo, BALB/c mice; conditions: 5 mg/kg intratumoral every week
Method: FIGS. 1A-1C illustrate the antitumor effects of low dose P4N in immune competent and deficient mice. (A) BALB/c (n=10/group) and nude mice (n=10/group) bearing CT26 tumors were treated with a single intratumoral injection of 2.5 or 5 mg/kg of P4N N. (B) B cell or CD8+ T cell depleted BALB/c mice (n=9/group) bearing CT26 tumors were treated with 5 mg/kg of P4N by intratumoral injection every week. Tumor volumes were measured every 2 days after treatments. Significant differences between the P4N groups and the PBS group were identified and labeled with *:p<0.05 and **:p<0.01. (C) Immunohistochemistry staining was used to monitor the infiltrations of macrophage (F4/80), DC (CD11c), T (CD3) and B cells (CD20) in the tumor area after a single intratumoral injection of PBS or 5 mg/kg of P4N. The photos are representative of the mice sacrificed on day 7 after the treatments.
P4N treatments in vivo. BALB/c or BALB/c/nu mice (6 week old) were inoculated subcutaneously with 1×10^6 CT-26 cells in 100 μl PBS. When the average tumor mass reached 50 mm^3, the animals were treated with 2.5 mg/kg or 5 mg/kg of P4N in one intratumoral injection. Subsequently, the tumor volumes were measured using a caliper every 2 days, and the volumes were calculated using the following formula: volume (mm^3)=length×width×height. Before sacrifice, the sera of the mice were collected for experimental use. […]

[2] = In vivo effects of P4N on antibody production and B cell differentiation (EGFP immunization); design: species or system BALB/c mice
Method: In vivo effects of P4N on antibody production and B cell differentiation. Mice were immunized and boosted with 100 μg EGFP in 100 μl of PBS by intraperitoneal injection once every week and simultaneously treated with or without 5 mg/kg P4N once or three times per week. Blood samples were collected from the retro-orbital plexus of the mice every week. The titers of anti-EGFP antibodies in sera were measured by enzyme-linked immunosorbent assay (ELISA). Briefly, each well of a microtiter plate (Nunc, Wiesbaden, Germany) was coated with 100 ng of rEGFP in 100 μl of PBS. The sera were 6400× diluted by PBS and added to the antigen-coated wells, and their titers were measured as described above. The isotypes of anti-EGFP antibodies in sera were also measured as described previously.
The splenocytes of P4N-treated or untreated mice were harvested and probed with anti-CD19-FITC, anti-CD23-APC, anti-CD38-APC, anti-CD27-APC, anti-CD138-APC, anti-CD5-PE or anti-CD1d-Alexa 647 (BioLegend) antibodies and analyzed by flow cytometry (BD Biosciences). The definitions of the cell types were as described above, except for memory B cells (CD19+CD27+) and plasma cells (CD19+CD138+). The indices of different types of B cell proliferation were calculated as follows: (the number of splenocytes×the percentage of each B cell population in treated splenocytes)/(the number of splenocytes×the percentage of each B cell population in untreated splenocytes).

CT26 tumors [3] = assay: Immunohistochemical staining of tumors after P4N; assay type: in vivo, mice
From the text: Immunohistochemical staining. Tumors isolated from P4N and vehicle-treated mice were embedded in paraffin and thin sections were made and processed for immunohistochemical staining. The sections were probed with rat monoclonal anti-F4/80 (1:50 dilution; GeneTex, Irvine, Calif.) and anti-CD20 (1:200 dilution; Santa Cruz Biotechnology, Dallas, Tex.), hamster monoclonal anti-CD11c (1:25 dilution; GeneTex), rabbit monoclonal anti-CD3 (1:50 dilution; GeneTex), rabbit polyclonal anti-TNF-α and anti-IL-8 antibody (1:50 dilution; Assay BioTech. Sunnyvale, Calif.) at 4° C. overnight, and the detection antibodies were recognized using a horseradish peroxidase (HRP)-conjugated anti-rat, anti-hamster, or anti-rabbit IgG antibody (1/1,500 dilution; Santa Cruz Biotechnology). The immune complexes in the sections were visualized using the LSAB2 system (DAKO, Carpinteria, Calif.). The sections were counterstained with hematoxylin, mounted, observed under a light microscope at a magnification of 400×, and photographed.

## C[C@H](Cc1ccc(OCCN2CCCCC2)c(OCCN2CCCCC2)c1)[C@@H](C)Cc1ccc(OCCN2CCCCC2)c(OCCN2CCCCC2)c1 [P4N, meso-2,3-dimethyl-1,4-bis(3,4-[2-(piperidino)ethoxyphenyl])butane tetrakishydrochloride salt]
CT26 tumors [1]; B cell depleted
  P4N-induced tumor inhibition under B cell-depletion: abolished the effect of P4N-induced tumor inhibition
CT26 tumors [1]; CD8+ T cell depleted
  P4N-induced tumor inhibition under CD8+ T cell-depletion: only attenuated the effect of P4N-induced tumor inhibition
[2]; 5 mg/kg P4N once or three times a week with EGFP
  total specific anti-EGFP Ig production: dramatically enhanced
[2]; compared to EGFP immunization
  B cell differentiation to plasma cells: greatly stimulated
[2]; immunization with P4N
  IgG1, IgG2b and IgA production: significantly increased
CT26 tumors [3]; 5 mg/kg intratumoral, day 7, both strains of mice
  expression levels of TNF-α and IL-8 in tumors: enhanced the expression levels
CT26 tumors [3]; single intratumoral injection 5 mg/kg, day 7, IHC
  infiltration of immune cells (macrophages, DC, T or B cells) into the tumor area: led to the infiltration of immune cells
